# In patent US20110077237A1, “KINASE INHIBITORS” (VERTEX PHARMACEUTICALS INCORPORATED, priority 2007, published 2011):
# Tests used:
# Assay type in all cases: biochemical
# PKC theta [1] = target: T1, PKC theta (Homo sapiens, UniProt Q04759); assay: PKC Theta III assay, similar to PKC theta I with fluorescence read out; conditions: fluorescence read out rather than UV
# Method: (§1) An assay buffer solution was prepared which consisted of 100 mM HEPES (pH 7.5), 10 mM MgCl2, 25 mM NaCl, 0.1 mM EDTA and 0.01% Brij. […] To 60 μL of this enzyme buffer, in a 384 well plate, was added 2 μL of VRT stock solution in DMSO. The mixture was allowed to equilibrate for 10 mins at 30° C. The enzyme reaction was initiated by the addition of 5 μL stock ATP solution prepared in assay buffer to a final assay concentration of 240 μM. Initial rate data was determined from the rate of change of absorbance at 340 nm (corresponding to stoichiometric consumption of NADH) using a Molecular Devices Spectramax plate reader (Sunnyvale, Calif.) over 15 mins at 30° C. For each Ki determination 12 data points covering the VRT concentration range of 0-20 μM were obtained in duplicate (DMSO stocks were prepared from an initial 10 mM VRT stock with subsequent 1:2 serial dilutions). Ki values were calculated from initial rate data by non-linear regression using the Prism software package (Prism 4.0a, Graphpad Software, San Diego, Calif.).
# Compounds tested in an assay similar to PKC theta I above with a fluorescence read out rather than a UV read out gave the following results: D compounds are (2-aminopyridin-3-yl)(6-(1-benzylpiperidin-4-ylamino)pyridin-2-yl)methanone, and (2-aminopyridin-3-yl)(6-(2,3-dihydroxypropylamino)pyridin-2-yl)methanone (naming by ChemDraw Ultre version 10.0).
# PKC alpha kinase = PKC alpha kinase (Homo sapiens, UniProt P17252); assay: PKC Alpha coupled-enzyme kinase assay; conditions: 4.5 nM PKC alpha, 130 μM ATP, 30° C.
# Method: as §1, with “mM EDTA, 100 μM CaCl2” for “mM EDTA”, “To 16” for “To 60”, “added 1” for “added 2”, “of 16” for “of 5”, “of 130” for “of 240”
# PKC theta [2] = target: T1, PKC theta; assay: PKC Theta II 33P radiometric kinase assay; conditions: 0.5 nM PKC theta, 240 μM ATP, [γ-33P] ATP, 25° C., compound range 0-0.25 μM
# Method: An assay buffer solution was prepared which consisted of 100 mM HEPES (pH 7.5), 10 mM MgCl2, 25 mM NaCl, 0.1 mM EDTA and 0.01% Brij. An enzyme buffer containing reagents to final assay concentrations of 0.002% Triton X-100, 200 μg/mL Phosphatidylserine, 20 μg/mL Diacylglycerol, 2 mM DTT, 150 μM substrate peptide ([…]) and 0.5 nM PKC theta kinase was prepared in assay buffer. To 22 μL of this enzyme buffer, in a 96 well plate, was added 2 μL of VRT stock solution in DMSO. The mixture was allowed to equilibrate for 10 mins at 25° C. […] ATP.
# The reaction was stopped after 60 minutes by the addition of 100 μL 100 mM phosphoric acid. A phosphocellulose 96 well plate (Millipore, Cat no. MAPHNOB) was washed with […] 100 mM phosphoric acid prior to the addition of the reaction mixture (120 μL) and was left to soak for at least 30 minutes, prior to wash steps (4×200 μL 100 mM phosphoric acid). After drying, 100 μL Optiphase ‘SuperMix’ liquid scintillation cocktail (Perkin Elmer) was added to the well prior to scintillation counting (1450 Microbeta Liquid Scintillation Counter, Wallac).
# For each Ki determination, 11 data points covering the VRT concentration range of 0-0.25 μM were obtained in duplicate (DMSO stocks were prepared from an initial 10 mM VRT stock with subsequent 1:2 serial dilutions). Ki values were calculated from initial rate data by non-linear regression using the Prism software package (Prism 4.0a, Graphpad Software, San Diego, Calif.).
# PKC delta kinase = PKC delta kinase (Homo sapiens, UniProt Q05655); assay: PKC Delta coupled-enzyme kinase assay; conditions: 46 nM PKC delta, 150 μM ATP, 30° C.; read-out: Ki PKC delta
# How it was run: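 Assay buffer was 100 mM HEPES pH 7.5, 10 mM MgCl2, 25 mM NaCl, 0.1 mM EDTA, 0.01% Brij. Enzyme buffer was equilibrated with compound in DMSO for 10 min at 30 °C. Ki values were derived by non-linear regression of initial rate data.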
# PKC theta [3] = target: T1, PKC theta; assay: PKC Theta I coupled-enzyme (NADH absorbance) kinase assay; conditions: 18 nM PKC theta, 240 μM ATP, 30° C., absorbance at 340 nm
# Method: An assay buffer solution was prepared which consisted of 100 mM HEPES (pH 7.5), 10 mM MgCl2, 25 mM NaCl, 0.1 mM EDTA and 0.01% Brij. […] To 60 μL of this enzyme buffer, in a 384 well plate, was added 2 μL of VRT stock solution in DMSO. The mixture was allowed to equilibrate for 10 mins at 30° C. […] Ki values were calculated from initial rate data by non-linear regression using the Prism software package (Prism 4.0a, Graphpad Software, San Diego, Calif.).
# PKC delta kinase, sequence (Q05655 whole entry): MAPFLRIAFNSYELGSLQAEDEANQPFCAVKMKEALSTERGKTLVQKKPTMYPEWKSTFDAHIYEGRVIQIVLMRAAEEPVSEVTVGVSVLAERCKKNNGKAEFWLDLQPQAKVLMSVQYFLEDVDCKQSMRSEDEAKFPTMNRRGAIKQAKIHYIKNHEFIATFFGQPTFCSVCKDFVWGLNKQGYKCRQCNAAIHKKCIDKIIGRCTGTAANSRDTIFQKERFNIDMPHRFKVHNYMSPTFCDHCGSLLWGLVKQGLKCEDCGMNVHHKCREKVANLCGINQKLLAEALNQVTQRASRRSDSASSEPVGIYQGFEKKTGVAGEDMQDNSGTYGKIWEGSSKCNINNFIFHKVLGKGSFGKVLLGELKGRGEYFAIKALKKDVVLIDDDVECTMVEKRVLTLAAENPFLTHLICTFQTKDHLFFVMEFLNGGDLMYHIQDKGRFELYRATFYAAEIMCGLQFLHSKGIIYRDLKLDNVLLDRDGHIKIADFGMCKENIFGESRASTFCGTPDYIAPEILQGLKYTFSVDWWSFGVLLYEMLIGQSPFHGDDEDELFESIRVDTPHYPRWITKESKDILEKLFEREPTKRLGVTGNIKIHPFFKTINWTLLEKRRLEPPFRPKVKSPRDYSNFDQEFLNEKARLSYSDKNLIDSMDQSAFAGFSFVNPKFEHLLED
# T1 sequence (Q04759 whole entry): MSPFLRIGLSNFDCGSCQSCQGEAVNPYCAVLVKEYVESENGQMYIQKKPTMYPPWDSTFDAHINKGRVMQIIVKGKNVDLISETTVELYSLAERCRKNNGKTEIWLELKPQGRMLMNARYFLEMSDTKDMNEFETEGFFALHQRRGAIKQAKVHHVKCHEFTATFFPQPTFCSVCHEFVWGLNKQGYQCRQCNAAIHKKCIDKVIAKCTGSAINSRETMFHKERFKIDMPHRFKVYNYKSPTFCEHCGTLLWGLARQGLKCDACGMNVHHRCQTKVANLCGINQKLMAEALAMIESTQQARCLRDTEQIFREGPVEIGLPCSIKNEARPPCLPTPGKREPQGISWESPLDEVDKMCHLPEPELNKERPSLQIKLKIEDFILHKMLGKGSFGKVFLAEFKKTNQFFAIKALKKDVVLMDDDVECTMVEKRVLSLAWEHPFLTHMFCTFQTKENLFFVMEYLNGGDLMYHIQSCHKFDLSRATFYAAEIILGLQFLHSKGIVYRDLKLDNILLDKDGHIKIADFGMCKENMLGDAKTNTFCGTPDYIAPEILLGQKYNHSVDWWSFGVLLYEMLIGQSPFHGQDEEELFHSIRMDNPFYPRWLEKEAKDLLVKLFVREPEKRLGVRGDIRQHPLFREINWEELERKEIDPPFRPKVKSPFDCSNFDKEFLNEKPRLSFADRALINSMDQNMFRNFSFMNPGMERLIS
Compound,Ki (PKC theta [1]),Ki (PKC alpha kinase),Ki (PKC theta [2]),Ki (PKC delta kinase),Ki (PKC theta [3])
Nc1ncccc1C(=O)c1cccc(NC2CCN(Cc3ccccc3)CC2)n1 [(2-aminopyridin-3-yl)(6-(1-benzylpiperidin-4-ylamino)pyridin-2-yl)methanone],> 2800 nM,–,–,–,–
"Nc1ncc(Br)cc1C(=O)c1cccc(N2CCCNCC2)n1 [compound 14, (6-(1,4-diazepan-1-yl)pyridin-2-yl)(2-amino-5-bromopyridin-3-yl)methanone]",–,< 50 nM,< 50 nM,50 to 500 nM,–
Nc1ncc(-c2ccccc2)cc1C(=O)c1cccc(N2CCCNCC2)n1 [compound 45],–,< 50 nM,< 50 nM,50 to 500 nM,–
C=Cc1cnc(N)c(C(=O)c2cccc(N3CCCNCC3)n2)c1 [compound 66],–,< 50 nM,50 to 500 nM,50 to 500 nM,–
CN1CCCN(c2cccc(C(=O)c3cc(Br)cnc3N)n2)CC1 [compound 67],–,–,< 50 nM,50 to 500 nM,–
"Nc1ncc(Br)cc1C(=O)c1cccc(N2CCCN(C(=O)CC(F)(F)F)CC2)n1 [compound 75, 1-(4-(6-(2-amino-5-bromonicotinoyl)pyridin-2-yl)-1,4-diazepan-1-yl)-3,3,3-trifluoropropan-1-one]",–,–,< 50 nM,50 to 500 nM,–
"C=Cc1cnc(N)c(C(=O)c2cccc(N3CCCN(C(=O)CC(F)(F)F)CC3)n2)c1 [compound 107, 1-(4-(6-(2-amino-5-vinylnicotinoyl)pyridin-2-yl)-1,4-diazepan-1-yl)-3,3,3-trifluoropropan-1-one]",–,–,< 50 nM,50 to 500 nM,–
C=Cc1cnc(N)c(C(=O)c2cccc(N3CCC(N)CC3)n2)c1 [compound 164],–,–,50 to 500 nM,–,–
Nc1ncc(-c2c[nH]c3ccccc23)cc1C(=O)c1cccc(N2CCCNCC2)n1 [compound 179],–,< 50 nM,50 to 500 nM,–,–
CC1CNCCN1c1cccc(C(=O)c2cccnc2N)n1 (stereo not drawn) [compound 191],–,–,50 to 500 nM,–,–
CC(C)C[C@H]1CN(c2cccc(C(=O)c3cccnc3N)n2)CCN1 [compound 193],–,–,50 to 500 nM,–,–
Cn1cc(-c2cnc(N)c(C(=O)c3cccc(N4CCCNCC4)n3)c2)c2ccccc21 [compound 210],–,< 50 nM,50 to 500 nM,–,–
Nc1ncc(-c2c[nH]c3ccccc23)cc1C(=O)c1cncc(N2CCCNCC2)n1 [compound 213],–,–,50 to 500 nM,–,–
Nc1ncccc1C(=O)c1cccc(N2CCNC(c3cccc(Cl)c3)C2)n1 (stereo not drawn) [compound 301],–,–,50 to 500 nM,–,–
C=Cc1ccc(N2CCN[C@@H](CC(C)C)C2)nc1C(=O)c1cccnc1N [compound 346],–,–,50 to 500 nM,–,–
C#Cc1ccc(N2CCN[C@@H](CC(C)C)C2)nc1C(=O)c1cccnc1N [compound 357],–,–,50 to 500 nM,–,–
C/C=C/c1ccc(N2CCN[C@@H](CC(C)C)C2)nc1C(=O)c1cccnc1N [compound 361],–,–,50 to 500 nM,–,–
Nc1ncccc1C(=O)c1nc(NC2CNC2)ccc1C(F)(F)F [compound 375],–,500 to 2800 nM,–,500 to 2800 nM,500 to 2800 nM
Nc1ncccc1C(=O)c1nc(NC2CCNC2)ccc1C(F)(F)F (stereo not drawn) [compound 376],–,500 to 2800 nM,–,500 to 2800 nM,500 to 2800 nM

# Second part, the molecule after the results:
Ki (PKC theta [1]),Ki (PKC alpha kinase),Ki (PKC theta [2]),Ki (PKC delta kinase),Ki (PKC theta [3]),Compound
–,500 to 2800 nM,–,500 to 2800 nM,500 to 2800 nM,NCCOc1ccc(C(F)(F)F)c(C(=O)c2cccnc2N)n1 [compound 378]
–,500 to 2800 nM,–,500 to 2800 nM,500 to 2800 nM,CNCCN(C)c1ccc(C(F)(F)F)c(C(=O)c2cccnc2N)n1 [compound 380]
–,500 to 2800 nM,–,500 to 2800 nM,500 to 2800 nM,Nc1ncccc1C(=O)c1nc(NC2CCCNC2)ccc1C(F)(F)F (stereo not drawn) [compound 381]
–,500 to 2800 nM,–,500 to 2800 nM,500 to 2800 nM,Nc1ncccc1C(=O)c1nc(NCC2CCCCN2)ccc1C(F)(F)F (stereo not drawn) [compound 382]
–,500 to 2800 nM,–,500 to 2800 nM,500 to 2800 nM,NC(=O)CNc1ccc(C(F)(F)F)c(C(=O)c2cccnc2N)n1 [compound 386]
–,500 to 2800 nM,–,500 to 2800 nM,500 to 2800 nM,Nc1ncccc1C(=O)c1nc(NC2CCCC(N)C2)ccc1C(F)(F)F (stereo not drawn) [compound 389]
–,500 to 2800 nM,–,500 to 2800 nM,500 to 2800 nM,Nc1ncccc1C(=O)c1cccc(Br)n1 [compound 390]
–,500 to 2800 nM,–,500 to 2800 nM,500 to 2800 nM,Cc1cc(Nc2ccc(C(F)(F)F)c(C(=O)c3cccnc3N)n2)[nH]n1 [compound 393]
–,500 to 2800 nM,–,500 to 2800 nM,500 to 2800 nM,Cc1cc(N)n(-c2ccc(C(F)(F)F)c(C(=O)c3cccnc3N)n2)n1 [compound 394]
–,500 to 2800 nM,–,500 to 2800 nM,500 to 2800 nM,CCCNc1ccc(C(F)(F)F)c(C(=O)c2cccnc2N)n1 [compound 398]
–,500 to 2800 nM,–,500 to 2800 nM,500 to 2800 nM,CC(C)C(CO)Nc1ccc(C(F)(F)F)c(C(=O)c2cccnc2N)n1 (stereo not drawn) [compound 399]
–,< 50 nM,50 to 500 nM,–,–,CC#Cc1ccc(N2CCN[C@@H](CC(C)C)C2)nc1C(=O)c1cccnc1N [compound 402]
–,500 to 2800 nM,–,500 to 2800 nM,500 to 2800 nM,NCCCOc1ccc(C(F)(F)F)c(C(=O)c2cccnc2N)n1 [compound 405]
–,500 to 2800 nM,–,500 to 2800 nM,500 to 2800 nM,CC(C)C[C@H]1CN(c2ccc(C#CC3CC3)c(C(=O)c3cccnc3N)n2)CCN1 [compound 407]
–,500 to 2800 nM,–,500 to 2800 nM,500 to 2800 nM,Nc1ncccc1C(=O)c1nc(N2CCNC(c3ccccc3)C2)ccc1C#CC1CC1 (stereo not drawn) [compound 408]
–,500 to 2800 nM,–,500 to 2800 nM,500 to 2800 nM,Nc1ncccc1C(=O)c1nc(N2CCNCC2)ccc1C#CC1CC1 [compound 409]
–,500 to 2800 nM,–,500 to 2800 nM,500 to 2800 nM,Nc1ncccc1C(=O)c1nc(NC2CCCCC2N)ccc1C(F)(F)F (stereo not drawn) [compound 414]
–,500 to 2800 nM,–,500 to 2800 nM,500 to 2800 nM,Nc1ncccc1C(=O)c1nc(N2CCNCC2)ccc1Cc1ccccc1 [compound 417]
–,500 to 2800 nM,–,500 to 2800 nM,500 to 2800 nM,Nc1ncccc1C(=O)c1nc(NCCCO)ccc1C(F)(F)F [compound 419]
–,500 to 2800 nM,–,500 to 2800 nM,500 to 2800 nM,CC(C)C[C@H]1CN(c2ccc(-c3cnn(C)c3)c(C(=O)c3cccnc3N)n2)CCN1 [compound 420]
